# Data reported in patent US11484608B2, “Non-invasive assessment of hepatic mitochondrial metabolism by positional isotopomer NMR tracer analysis (PINTA)” (YALE UNIVERSITY, priority 2017, dated 2022).
# What was measured:
# [1] = tested on: primary mouse hepatocytes; test: Oxygen consumption in isolated hepatocytes (Seahorse); format: cell-based
# Description: To assess oxygen consumption, primary mouse hepatocytes were isolated as described above and plated on collagen-I coated XF24 V7 cell culture plates (1.2×10^4 cells per well) in 2 mL recovery media as previously described (Camporez, J. P. et al. Endocrinology 154, 3099-3109). Following incubation for 6 hr at 37° C. and 5% CO2, the cells were washed twice with 1 ml Low Glucose Culture Media and incubated overnight in 250 μl low glucose culture media at 37° C. and 5% CO2. The following morning, cells were washed with XF24 assay media (DMEM Base containing 1.0 mM pyruvate, 2 mM glutamine and 5.5 mM glucose, pH 7.4). 500 μL of XF24 Assay Media was added to each well and plates were equilibrated at 37° C. for 1 h. Four measurements of basal oxygen consumption rates (picomoles per minute) were recorded on a Seahorse Bioscience XF^e 24 Analyzer (Seahorse Biosciences) using an instrument protocol of 3-minute mix, 2-minute wait, and 3-minute measure. […] Ten measurements were taken following injection and the average of eight measurements were used for subsequent analyses. Oxygen consumption rates were normalized to total protein content and expressed as fold change compared to vehicle-treated cells. Experiments were repeated three times using 3-4 mice per genotype.
# [2] = tested on: hepatic mitochondrial oxidation, NAFLD, glucose tolerance; test: Chronic 10-day glucagon infusion in high fat fed rats; format: in vivo, rat
# Description: During week 3 of the diet, rats underwent surgery under isoflurane anesthesia to place catheters in the jugular vein and carotid artery, and recovery was confirmed by regaining the pre-surgical body weight prior to in vivo studies. […] Rats were fasted for 8 hr prior to sacrifice with IV pentobarbital.
# In the rat studies, blood was collected from the jugular venous catheter. In both species, samples were immediately centrifuged (12,000 rpm) to separate plasma from red blood cells. PINTA analysis of hepatic mitochondrial fluxes was employed in both rats and mice (see Example 1). Briefly, mice were infused with a two-hour primed (5 min, 3×)-continuous infusion of [3-^13C] lactate (40 μmol kg^−1 min^−1) and [1,2,3,4,5,6,6-^2H7] glucose (0.1 mg kg^−1 min^−1). Rats were infused with lactate at the same rate, as well as [3-^3H] glucose (0.1 mCi kg^−1 min^−1). At the conclusion of the study, animals were euthanized with IV pentobarbital.
# In the glucose tolerance tests, rodents were injected with 1 g kg^−1 50% dextrose (rats) or 10% dextrose (mice) intraperitoneally. Blood samples were taken through the venous catheter (rats) or by tail bleeding (mice) for measurement of plasma glucose and insulin concentrations as described below (Biochemical analysis).
# Plasma glucose concentrations were measured using a YSI Glucose Analyzer. […] Plasma NEFA concentrations were measured using the Wako NEFA assay, while plasma glycerol and plasma and liver amino acid concentrations were measured by GC/MS. […] Protein concentrations were measured by Western blot, using antibodies from Santa Cruz (PC, PEPCK, CAMKII), Cell Signaling (ATGL, pCAMKIV, CAMKIV, pCRTC2, CRTC2, pACC, ACC, pAMPK, AMPK, pHSL, HSL, GAPDH, and β-actin), Novus Biologicals (pCAMKII), Abcam (pATGL), LSBio (pInsP3R-I), and BD Transduction Laboratories (InsP3R-II, InsP3R-III, PKCε). The antibody to pATGL was kindly provided by Dr. Hei Sook Sul, while the antibody to total InsP3R-I was custom-made using an epitope against the last 18 amino acids of InsP3R-I. Gluconeogenic gene mRNA expression was measured by qPCR^45 using primers sequences as follows: […]
# [3] = HFD rats, two hours after withdrawal of glucagon infusion
# [4] = intraperitoneal glucose tolerance test, HFD rats
# [5] = rat liver, chronic glucagon infusion
# [6] = rats, chronic glucagon infusion
substance,measurement,setting,value
glucagon,stimulation of mitochondrial oxidation,[1]; InsP3R-I KO hepatocytes from male mice,blunted
same,stimulation of mitochondrial oxidation,[1]; WT hepatocytes from male mice,~60%
same,oxygen consumption,"[1]; isolated WT hepatocytes, 100 nM glucagon, not InsP3R-I KO",increase
same,"food intake, body weight, and hepatic ceramide content","[2]; HFD rats, chronic glucagon",similar
same,hepatic VPK flux,"[2]; HFD rats, chronic glucagon",did not change
same,hepatic VPK flux as proportion of hepatic VPC flux,"[2]; HFD rats, chronic glucagon",15-20%
same,liver glycogen content,"[2]; HFD rats, chronic glucagon",reductions
same,protein kinase C-epsilon (PKCε) translocation,"[2]; HFD rats, chronic glucagon",marked reductions
same,reductions in hepatic triglyceride and diacylglycerol concentrations,"[2]; HFD rats, chronic glucagon",50-90%
same,hepatic acetyl- and malonyl-CoA content,"[2]; HFD rats, glucagon withdrawn four hours before sacrifice",suppression
same,increase in rates of hepatic mitochondrial oxidation,"[2]; HFD rats, ten days glucagon 5 ng kg^−1 min^−1",two-fold
same,reductions in fasting plasma glucose,[2]; [3],1.4 mM
same,reductions in fasting plasma insulin concentrations,[2]; [3],50%
same,reduction in glucose area under the curve,[2]; [4],20%
same,reduction in insulin area under the curve,[2]; [4],60%
same,"Cytosolic DAG C16, C16",[2]; [5],1.8 ± 0.2 nmol/g
same,"Cytosolic DAG C16, C18_2",[2]; [5],7.2 ± 1.0 nmol/g
same,Cytosolic DAG C16 C20_4,[2]; [5],0.5 ± 0.1 nmol/g
same,"Cytosolic DAG C18, C16",[2]; [5],1.7 ± 0.1 nmol/g
same,"Cytosolic DAG C18, C18",[2]; [5],5.6 ± 0.6 nmol/g
same,Cytosolic DAG C18 C20_4,[2]; [5],13.6 ± 1.1 nmol/g
same,"Cytosolic DAG C18_1, C18",[2]; [5],0.6 ± 0.1 nmol/g
same,"Cytosolic DAG C18_1, C18_1",[2]; [5],4.2 ± 0.5 nmol/g
same,"Cytosolic DAG C18_1, C18_2",[2]; [5],4.0 ± 0.5 nmol/g
same,Cytosolic DAG C18_1 C16,[2]; [5],5.3 ± 0.9 nmol/g
same,"Cytosolic DAG C18_2, C18",[2]; [5],0.9 ± 0.1 nmol/g
same,"Cytosolic DAG C18_2, C18_2",[2]; [5],3.6 ± 0.6 nmol/g
same,Cytosolic DAG C20_4 C20_5,[2]; [5],0.5 ± 0.1 nmol/g
same,Cytosolic DAG Total DAG,[2]; [5],38.3 ± 3.1 nmol/g
same,"Membrane DAG C16, C16",[2]; [5],10.2 ± 2.6 nmol/g
same,"Membrane DAG C16, C18_2",[2]; [5],97.3 ± 13.4 nmol/g
same,Membrane DAG C16 C20_4,[2]; [5],4.2 ± 0.7 nmol/g
same,"Membrane DAG C18, C16",[2]; [5],4.9 ± 0.5 nmol/g
same,"Membrane DAG C18, C18",[2]; [5],6.5 ± 0.5 nmol/g
same,Membrane DAG C18 C20_4,[2]; [5],21.5 ± 2.4 nmol/g
same,"Membrane DAG C18_1, C18",[2]; [5],3.6 ± 0.4 nmol/g
same,"Membrane DAG C18_1, C18_1",[2]; [5],44.1 ± 7.2 nmol/g
same,"Membrane DAG C18_1, C18_2",[2]; [5],58.7 ± 7.8 nmol/g
same,Membrane DAG C18_1 C16,[2]; [5],50.0 ± 9.0 nmol/g
same,"Membrane DAG C18_2, C18",[2]; [5],7.8 ± 0.7 nmol/g
same,"Membrane DAG C18_2, C18_2",[2]; [5],44.0 ± 10.7 nmol/g
same,Membrane DAG Total DAG,[2]; [5],364.0 ± 44.7 nmol/g
same,Ceramide C16,[2]; [6],40.1 ± 10.2 nmol/g
same,Ceramide C18,[2]; [6],7.1 ± 1.4 nmol/g
same,Ceramide C20,[2]; [6],15.9 ± 3.7 nmol/g
same,Ceramide C22,[2]; [6],26.9 ± 5.2 nmol/g
same,Ceramide C24,[2]; [6],52.8 ± 10.9 nmol/g
same,Ceramide C24:1,[2]; [6],15.2 ± 3.9 nmol/g
same,Total ceramide,[2]; [6],158.0 ± 33.4 nmol/g
same,increases in hepatic mitochondrial fat oxidation (VFAO),[2]; short-term continuous glucagon treatment,two-fold
